In experiment [1] the target is T1, rCA1 (CA1), beta-class carbonic anhydrase of Paracoccidioides (Paracoccidioides lutzii, UniProt C1H4M3).
T1 construct: gene PAAG_05716; complete cDNA, 282 residues, GST fusion (pGEX-4T-3) from E. coli, GST cut by thrombin; 33 kDa
T1 sequence (C1H4M3 1-282): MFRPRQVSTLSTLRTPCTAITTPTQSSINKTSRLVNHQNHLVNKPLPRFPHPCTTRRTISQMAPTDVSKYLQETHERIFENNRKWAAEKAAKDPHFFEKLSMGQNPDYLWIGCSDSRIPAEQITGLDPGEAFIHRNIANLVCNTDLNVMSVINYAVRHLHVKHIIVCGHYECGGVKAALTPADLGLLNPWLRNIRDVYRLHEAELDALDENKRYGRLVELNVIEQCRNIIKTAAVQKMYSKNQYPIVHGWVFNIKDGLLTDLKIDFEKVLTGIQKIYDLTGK
Put plainly: CO2 hydration, electrometric (Wilbur-Anderson). Type of experiment: biochemical. The settings on record: read-out: CA1- Residual Activity (%). An excerpt: CO2 hydration, electrometric (Wilbur-Anderson) on rCA1 (CA1), beta-class carbonic anhydrase of Paracoccidioides

Experiment [2] deals with T2, rCA4 (CA4), alpha-class carbonic anhydrase of Paracoccidioides (Paracoccidioides brasiliensis, UniProt B1PIT4).
T2 construct: 32 kDa
T2 sequence (B1PIT4 1-301): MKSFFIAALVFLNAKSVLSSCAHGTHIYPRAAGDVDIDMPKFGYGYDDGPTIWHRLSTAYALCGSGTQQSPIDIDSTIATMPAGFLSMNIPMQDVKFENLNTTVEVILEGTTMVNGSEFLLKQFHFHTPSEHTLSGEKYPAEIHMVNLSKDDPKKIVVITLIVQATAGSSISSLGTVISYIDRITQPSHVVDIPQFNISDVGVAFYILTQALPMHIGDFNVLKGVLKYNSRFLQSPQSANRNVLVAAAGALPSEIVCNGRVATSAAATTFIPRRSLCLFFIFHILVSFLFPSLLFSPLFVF
Put plainly: CO2 hydration, electrometric (Wilbur-Anderson). It counts as biochemical. The settings on record: read-out: CA4- Residual Activity (%). An excerpt:
CO2 hydration, electrometric (Wilbur-Anderson) on rCA4 (CA4), alpha-class carbonic anhydrase of Paracoccidioides

`N[C@@H](Cc1cnc[nH]1)C(=O)O` [L-His]: the remaining activity at 25 µM in experiment [1] came out at 142%; in experiment [2] it was 152%.

With `N[C@@H](Cc1c[nH]c2ccccc12)C(=O)O` [L-Trp], the remaining activity at 25 µM in experiment [1] is 162%; in experiment [2], 158%.

`N=C(N)NCCC[C@H](N)C(=O)O` [L-Arg]: the remaining activity at 25 µM amounted to 130% in experiment [1] and 132% in experiment [2].

In the case of `NCCCC[C@H](N)C(=O)O` [L-Lys], the values for the remaining activity at 25 µM in experiment [1] and in experiment [2] were 138% and 140%, respectively.

The record behind these values is article PMC5004831, “Molecular and biochemical characterization of carbonic anhydrases of Paracoccidioides” (Genetics and Molecular Biology, 2016).
